Data reported in patent publication US20050271588A1, “Liposome targeting of matrix metalloproteinase inhibitors” (priority 2001, published 2005).
Positions of bridges follow the written chain, without caps; N, C: chain ends. Residues, ends and D or L forms follow the SMILES beside them.

Key:
MMP-2 = biological target: T1, MMP-2 (Homo sapiens, UniProt P08253); assay: Casein zymography, inhibition of MMP-2; type: biochemical; settings: 85 μM peptide
T1 construct: purchased Boehringer Mannheim GmbH (Germany)
T1 sequence (P08253 110-660): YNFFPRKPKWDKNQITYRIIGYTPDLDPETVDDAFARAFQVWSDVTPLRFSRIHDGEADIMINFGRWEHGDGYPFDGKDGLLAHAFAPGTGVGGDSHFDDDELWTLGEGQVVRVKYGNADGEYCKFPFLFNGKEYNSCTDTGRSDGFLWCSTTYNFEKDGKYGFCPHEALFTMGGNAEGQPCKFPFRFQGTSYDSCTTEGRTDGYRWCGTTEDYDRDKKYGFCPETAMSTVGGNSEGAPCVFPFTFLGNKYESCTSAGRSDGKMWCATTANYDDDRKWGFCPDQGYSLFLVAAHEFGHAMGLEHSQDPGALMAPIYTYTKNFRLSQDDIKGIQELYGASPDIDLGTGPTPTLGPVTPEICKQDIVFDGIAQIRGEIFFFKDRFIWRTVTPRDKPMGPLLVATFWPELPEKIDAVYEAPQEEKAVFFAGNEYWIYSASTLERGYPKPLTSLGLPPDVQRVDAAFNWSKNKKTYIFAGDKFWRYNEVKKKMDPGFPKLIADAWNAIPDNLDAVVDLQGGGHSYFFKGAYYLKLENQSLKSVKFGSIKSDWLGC
Method: Assay for gelatinases. Inhibition of MMP-9 and MMP-2 by the different synthetic peptides was measured using casein zymography (Halinen et al., 1996). MMP-9 was purified as described (Sorsa et al., 1997). Subsequently, MMP-2 (2.5 μg) or MMP-9 (2.5 μg) was run on a 10% SDS-PAGE containing two mg/ml casein. The gel was first washed in Triton X-100 containing buffer to remove SDS, and it was cut into five slices which were immersed into peptide (CTT, CLP, CWL or STT) containing solutions (85 μM). After incubation for 48 hrs at 37° C., the gels were stained with Coomassie blue, scanned, and the digested areas quantitated using image analysis (Global Lab Image 3.2, Data Translation Inc. and Acuity Imaging Inc., Marlboro, Mass., USA).

MMP-9 = biological target: T2, MMP-9 (Homo sapiens, UniProt P14780); assay: Gelatinase assay with fluorogenic peptide substrate; type: biochemical; settings: fluorogenic substrate; text says 8 μM 'in both assays'; liposomes 200 μM POPC/POPE
T2 construct: made in house
Method: The activity of MMP-9 was measured also using the fluorogenic peptide substrate MCA-Pro-Leu-Ala-Nva-Dpa-Ala-Arg (Calbiochem, San Diego, Calif., USA). More specifically, 50 ng of MMP-9 was preincubated in PBS for 30 min at RT in the absence or presence of CTT or its liposome complex. Subsequently, the fluorogenic substrate was added to a final concentration of 0.1 mM and the incubation was continued at 37° C. for 15 min, whereafter fluorescence intensities were measured with exitation at 340 nm and emission at 390 nm in a microtiter plate reader.

[1] = Trp fluorescence I350/I330 ratio; type: physicochemical
Method: Fluorescence spectroscopy. The environments of the tryptophan residues of CTT, STT, CLP, and CWL in liposomes were studied by fluorescence spectroscopy. The center of Trp fluorescence peak is at ˜350 nm when in water, whereas in a hydrophobic environment the emission is centered near 330 nm. Accordingly, changes in the microenvironment of Trp can be monitored by measuring I350/I330, the ratio of the emission at 350 nm to that at 330 nm (Lakowicz, 1999). Tryptophan fluorescence was recorded with a Perkin Elmer LS 50 B spectrofluorometer equipped with a magnetically stirred and thermostated cuvette compartment. […] Excitation and emission bandpasses were 10 nm and 10 nm, respectively. Excitation wavelength was 295 nm, and emission spectra were recorded in the range 300 to 400 nm. […]

U937 leukemia cells = assay: Association of DPPRho-labelled liposomes with cells; type: cell-based; settings: U937, 5 min
Method: Assays for liposome uptake by cells. In order to study the effects of the different peptides on the cellular uptake of liposomes, rhodamine-labelled phospholipid analog (DPPRho) was incorporated into liposomes as a tracer, to yield a composition POPC/POPE/DPPRho (80:19:1, mol/mol). The indicated peptides were mixed with LUVs and subsequently added to cells cultured in microtiter well plates. After an incubation for 5 min at 38° C. liposomes not bound to the cells were removed by rinsing the cells three times with cold PBS. The relative amount of DPPRho associated with the cells was determined using Tecan Spectrafluor Plus microplate reader (Tecan, Hombrechtigon, Switzerland) with excitation at 535 nm and emission at 595 nm.

U937 cells = assay: Cell killing by Adriamycin-containing liposomes, EthD-1 viability assay; type: cell-based; settings: U937, 24 h, peptide 85 μM, Adriamycin 0.4 μM
Method: Viability assays. Peptide-liposome complexes with the encapsulated adriamycin were made as described above, yielding final concentrations of peptide, lipid, and adriamycin of 85 μM, 0.2 mM, and 0.4 μM, respectively, and were subsequently added to a ten μl (10^5 cells) sample of U937 cells. For the detection of dead cells EthD-1 was used. This fluorophore is membrane-impermeable and emits fluorescence only when bound to DNA (Papadopoulos et al., 1994). Accordingly, EthD-1 readily enters dead cells and binds to their DNA, its fluorescence intensity correlating to the amount of dead cells. EthD-1 emission was measured using microplate reader with excitation at 495 nm and emission at 635 nm. Student's t-test was used to assess statistical significance.

MMP-2 and MMP-9 = settings: cited from earlier work
[2] = system: endothelial and tumor cell migration; settings: cited from earlier work

T2 sequence (P14780 94-707): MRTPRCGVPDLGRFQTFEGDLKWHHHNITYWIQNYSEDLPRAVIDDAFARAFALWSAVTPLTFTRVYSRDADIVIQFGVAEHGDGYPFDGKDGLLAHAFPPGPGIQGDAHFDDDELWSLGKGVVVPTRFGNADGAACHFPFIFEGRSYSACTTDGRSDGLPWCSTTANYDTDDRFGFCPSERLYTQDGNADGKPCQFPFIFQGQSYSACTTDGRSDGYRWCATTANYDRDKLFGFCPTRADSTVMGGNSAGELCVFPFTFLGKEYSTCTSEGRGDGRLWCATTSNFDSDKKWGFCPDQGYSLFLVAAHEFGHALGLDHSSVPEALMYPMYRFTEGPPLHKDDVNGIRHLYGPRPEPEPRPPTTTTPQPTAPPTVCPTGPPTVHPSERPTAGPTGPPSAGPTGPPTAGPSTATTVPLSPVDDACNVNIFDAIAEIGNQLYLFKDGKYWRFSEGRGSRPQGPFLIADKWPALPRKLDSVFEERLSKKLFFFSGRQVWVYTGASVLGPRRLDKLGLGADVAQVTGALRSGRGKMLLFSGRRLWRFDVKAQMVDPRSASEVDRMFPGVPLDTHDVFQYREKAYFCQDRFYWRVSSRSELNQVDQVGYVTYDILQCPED

With `CC(C)C[C@@H]1NC(=O)[C@H]([C@@H](C)O)NC(=O)[C@H](Cc2ccccc2)NC(=O)CNC(=O)[C@H](Cc2c[nH]c3ccccc23)NC(=O)[C@H](Cc2c[nH]cn2)NC(=O)[C@H]([C@@H](C)O)NC(=O)[C@H]([C@@H](C)O)NC(=O)[C@@H](N)CSSC[C@@H](C(=O)O)NC1=O` [CTT] (H-CTTHWGFTLC-OH; disulfide 1-10; N-terminus and C-terminus assumed) the “Inhibition of MMP-2 activity” value (MMP-2) was “approx. 70%”, the IC50 (MMP-9) was 8 µM and the “I350/I330 of Trp residue” value ([1]; in PBS) was 1.4. For the same compound, the “I350/I330 of Trp residue” value ([1]; presence of LUVs (0.5 mM total phospholipid)) was 1.00, the “Increase of DPPRho marker bound to cells with peptide vs without” value (U937 leukemia cells) was “approx. 3.7 fold” and the “Increase in killing of cells vs Adriamycin liposomes without peptide” value (U937 cells) was 4.1 fold. For the same compound, the “Selective inhibition of MMP family members” value (MMP-2 and MMP-9) was “selectively inhibit the activity of MMP-2 and MMP-9” and the “Endothelial and tumor cell migration in vitro” value [2] was “inhibited”.
